These results are taken from patent publication US8114862B2, “TGR5 modulators and methods of use thereof” (Intercept Pharmaceuticals, Inc., priority 2008, dated 2012).

The target in data set [1] is T1, TGR5 (Homo sapiens, UniProt Q8TDU6).
T1 sequence (Q8TDU6 1-330): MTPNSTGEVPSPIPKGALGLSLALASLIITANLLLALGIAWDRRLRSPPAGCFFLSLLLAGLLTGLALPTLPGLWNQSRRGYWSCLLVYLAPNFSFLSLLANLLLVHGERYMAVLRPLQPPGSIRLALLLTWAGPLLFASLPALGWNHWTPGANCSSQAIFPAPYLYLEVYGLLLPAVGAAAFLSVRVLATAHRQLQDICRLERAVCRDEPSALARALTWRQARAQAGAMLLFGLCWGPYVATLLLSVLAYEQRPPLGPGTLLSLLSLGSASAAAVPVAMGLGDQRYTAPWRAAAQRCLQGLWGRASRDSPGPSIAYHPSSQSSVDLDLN
Kind of data set: CRE-driven luciferase reporter assay in TGR5-transfected CHO cells. Also noted: host or cells: CHO cells. Format: cell-based.

Another data set deals with T2, hFXR (Homo sapiens, UniProt Q96RI1).
T2 construct: expressed in transfected cells; host or cells: COS1 cells
T2 sequence (Q96RI1 whole entry): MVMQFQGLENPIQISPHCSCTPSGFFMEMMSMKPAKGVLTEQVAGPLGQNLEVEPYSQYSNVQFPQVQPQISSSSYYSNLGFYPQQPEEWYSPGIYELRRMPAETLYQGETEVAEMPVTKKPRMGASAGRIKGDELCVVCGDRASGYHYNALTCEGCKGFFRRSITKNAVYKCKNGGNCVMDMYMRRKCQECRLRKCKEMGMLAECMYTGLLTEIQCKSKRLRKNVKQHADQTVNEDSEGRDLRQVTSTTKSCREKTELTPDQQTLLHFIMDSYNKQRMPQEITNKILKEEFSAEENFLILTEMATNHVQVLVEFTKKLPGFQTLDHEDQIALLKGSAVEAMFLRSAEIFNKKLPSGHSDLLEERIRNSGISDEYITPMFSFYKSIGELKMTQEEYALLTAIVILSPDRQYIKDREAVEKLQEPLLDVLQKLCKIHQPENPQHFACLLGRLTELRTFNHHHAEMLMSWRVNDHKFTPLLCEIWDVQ
T2 sequence (P28700 whole entry partner): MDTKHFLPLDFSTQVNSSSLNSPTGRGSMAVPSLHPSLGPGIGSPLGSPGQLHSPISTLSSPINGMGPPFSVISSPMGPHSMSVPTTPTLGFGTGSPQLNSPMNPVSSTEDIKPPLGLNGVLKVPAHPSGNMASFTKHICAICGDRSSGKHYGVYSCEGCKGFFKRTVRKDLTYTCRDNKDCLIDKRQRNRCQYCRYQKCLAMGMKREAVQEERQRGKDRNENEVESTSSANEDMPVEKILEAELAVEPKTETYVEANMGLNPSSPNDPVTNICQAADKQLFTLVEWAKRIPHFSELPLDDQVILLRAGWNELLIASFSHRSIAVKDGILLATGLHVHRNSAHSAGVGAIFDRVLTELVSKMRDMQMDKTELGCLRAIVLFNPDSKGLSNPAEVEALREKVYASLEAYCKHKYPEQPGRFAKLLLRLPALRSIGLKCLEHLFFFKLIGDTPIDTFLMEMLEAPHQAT
Kind of data set: FXR luciferase reporter assay in COS1 cells. Format: cell-based.

A further data set deals with human FXR (Homo sapiens, UniProt Q96RI1). Kind of data set: FRET recruitment of SRC-1 peptide to human FXR, cell-free ELiSA.
Chain of human FXR (Q96RI1 whole entry): as the sequence (Q96RI1 whole entry) above
Data set [2] concerns the target T1, TGR5. Put plainly: TGR5 receptor in vitro assay (Table 1). Format: cell-based.
In data set [3] the target is T1, TGR5. Put plainly: Direct comparison 6-ethyl vs 6-methyl 23-methyl cholic acid: TGR5. Format: cell-based.
The target of a further data set is T3, FXR (Homo sapiens, UniProt Q96RI1).
T3 sequence (Q96RI1 262-486 limits assumed): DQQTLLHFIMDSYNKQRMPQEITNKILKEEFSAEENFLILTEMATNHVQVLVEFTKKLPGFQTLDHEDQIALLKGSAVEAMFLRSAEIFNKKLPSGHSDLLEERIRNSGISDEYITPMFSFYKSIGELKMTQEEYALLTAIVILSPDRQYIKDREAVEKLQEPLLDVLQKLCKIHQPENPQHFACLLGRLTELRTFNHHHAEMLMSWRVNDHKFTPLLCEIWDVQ
Kind of data set: Direct comparison 6-ethyl vs 6-methyl 23-methyl cholic acid: FXR. Format: biochemical.

Data set [4] can be described thus: Choleretic effect (bile flow) in bile fistula rat, id and iv infusion. Format: in vivo. Particulars: 1 (μmol/min)/kg bw over 1 h.
Data set [5] can be described thus: Biliary secretion and metabolism in bile fistula rat, id and iv infusion. Particulars: rat, in vivo, 1 μmol/kg/min.
Data set [6] is described as follows: Previous study of OA tolerability in animals. It is filed as in vivo. Here is the method: Therefore, OA was administered at the dose of 50 mg/kg/d in this study.
Another data set is described as follows: in vitro. Conditions: human.
The conditions of data set [7]: values from literature; cited from earlier work.
For data set [8] the following is noted: values from literature; cited from earlier work. The source holds these as a separate data set.
For the next data set, the target named is bovine serum albumin (Bos taurus, UniProt P02769). Particulars: values from literature; cited from earlier work.
Chain of bovine serum albumin (P02769 25-607): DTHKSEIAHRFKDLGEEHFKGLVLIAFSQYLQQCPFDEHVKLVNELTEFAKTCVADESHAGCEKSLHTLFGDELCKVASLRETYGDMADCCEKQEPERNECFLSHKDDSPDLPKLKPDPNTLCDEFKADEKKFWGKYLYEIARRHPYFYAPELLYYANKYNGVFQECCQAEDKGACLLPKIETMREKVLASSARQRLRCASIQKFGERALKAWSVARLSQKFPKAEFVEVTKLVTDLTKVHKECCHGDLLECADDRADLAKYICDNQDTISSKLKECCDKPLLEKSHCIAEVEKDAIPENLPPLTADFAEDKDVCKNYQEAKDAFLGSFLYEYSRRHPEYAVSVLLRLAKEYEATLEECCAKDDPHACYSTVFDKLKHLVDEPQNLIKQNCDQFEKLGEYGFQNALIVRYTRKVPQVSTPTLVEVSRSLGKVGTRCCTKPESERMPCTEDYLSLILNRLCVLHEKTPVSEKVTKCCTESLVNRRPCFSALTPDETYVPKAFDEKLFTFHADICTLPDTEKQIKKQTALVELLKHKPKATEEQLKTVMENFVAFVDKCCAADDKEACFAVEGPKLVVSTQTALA

Read-outs that look alike come from different tables or passages of the source. Marks after values point to notes of the source that are not given here.

Method for hFXR: COS1 cells were plated in 96-well plates at a density of 2.5×10^4 cells/well in DMEM supplemented with 10% (v/v) charcoal-stripped FBS, cultured for 24 h, and then transfected with 25 ng of hFXR expression plasmid (pCMX-hFXR), 25 ng of mouse (m) retinoid X receptor α (RXRα) expression plasmid (pCMX-mRXRa), 50 ng of reporter plasmid (pEcREx7-Luc) and 50 ng of pCMVβ as internal control in each well, using the Lipofectamine 2000 reagent. After 24 h, cells were washed twice with PBS and treated with different concentrations of each compound in fresh DMEM supplemented with 10% (v/v) charcoal-stripped FBS for 24 h. After treatment, the cells were lysed with 50 μl of lysis buffer by a freeze-thaw cycle and subjected to both luciferase and β-galactosidase assays as described below. Normalized luciferase values were determined by dividing the luciferase activity by the β-galactosidase activity.
Assays were performed in triplicate or quadruplicate for each condition. EC50 values were determined by probit analysis. […] After subtracting the average value of the basal (vehicle-treated) condition, values were applied to EC50 and/or efficacy determinations. Calculation of average EC50 and comparison of the EC50 between different compounds were performed after logarithm transformation.
Method for human FXR: Activity on FXR was assayed by fluorescence resonance energy transfer (FRET) for recruitment of the SRC-1 peptide to human FXR using a cell-free ELiSA.

With `C[C@H]1[C@@H](O)C2C3CC[C@H]([C@H](C)C[C@H](C)C(=O)O)[C@@]3(C)[C@@H](O)CC2[C@@]2(C)CC[C@@H](O)C[C@@H]12` (stereo partly drawn), the “EC50 ratio (TGR5/FXR)” value at TGR5 [1] worked out at 0.035. Besides, at TGR5 [1] (% of activity vs. 10 μM LCA), the “TGR5 Efficacy” value is reported as 75.6%. For the same compound, the EC50 on TGR5 [1] (Table 3) is 800 nM; at hFXR (Table 3) it was 22.8 µM. The “FXR Efficacy” value at hFXR (% of activity vs. 10 μM 6ECDCA) came to 0.76%.
With `C[C@H]1[C@@H](O)C2C3CC[C@H]([C@H](C)CCC(=O)O)[C@@]3(C)CCC2[C@@]2(C)CC[C@@H](O)C[C@@H]12` (stereo partly drawn) [Compound 6α-MeCDCA], at human FXR, it took 210 nM to reach a half-maximal effect (EC50) and the “FXR Data Efficacy” value came out at 148%. Moreover, at TGR5 [2], the EC50 was determined as 370 nM and the “TGR5 Data Efficacy” value is recorded as 119%.
On to `C[C@H]1[C@@H](O)[C@@H]2[C@H](C[C@H](O)[C@]3(C)[C@@H]([C@H](C)C[C@H](C)C(=O)O)CC[C@@H]23)[C@@]2(C)CC[C@@H](O)C[C@@H]12` [Ih3, 23(S)-Methyl-6α-methyl-3α,7α,12α-trihydroxy-5β-cholan-24-oic acid], for which the EC50 was 1700 nM on TGR5 [3] (first experiment, read-out: TGR5 I exp EC50); 3000 nM at TGR5 [3] (second experiment, read-out: TGR5 II exp EC50); 10 µM on FXR (first experiment, read-out: FXR I exp EC50); 7.8 µM on FXR (second experiment, read-out: FXR II exp EC50).
`CC[C@H]1[C@@H](O)[C@@H]2[C@H](C[C@H](O)[C@]3(C)[C@@H]([C@H](C)C[C@@H](C)C(=O)O)CC[C@@H]23)[C@@]2(C)CC[C@@H](O)C[C@@H]12` [Ii3e, 6α-ethyl-(23R)-methyl-3α,7α,12α trihydroxy-5β-cholan-24-oic acid]: the “SV0: maximum bile secretion rate” value in [4] (id infusion) is listed as 81 ± 8 (μL/min)/kg bw; in data set [4] (iv infusion), “(90 ± 5) (μL/min)/kg bw”. The fraction unbound at 4 h in data set [5] was 0.68 ± 0.08; in data set [5] (iv), 0.65.
As to `CC1(C)CC[C@]2(C(=O)O)CC[C@]3(C)C(=CC[C@@H]4[C@@]5(C)CC[C@H](O)C(C)(C)[C@@H]5CC[C@]43C)[C@@H]2C1` [OA, oleanolic acid], the toxicity result in data set [6] (100 mg/kg/day) is “some signs of toxicity”. The tolerability result in data set [6] (lower dose) is recorded as “well tolerated”.
With `CN[C@@H]1C[C@H]2O[C@@](C)([C@@H]1OC)n1c3ccccc3c3c4c(c5c6ccccc6n2c5c31)C(=O)NC4` [Staurosporine], in the data set “in vitro”, the EC50 at 4 h worked out at 15 µM.
For `C[C@H](CCC(=O)NCCS(=O)(=O)O)[C@H]1CC[C@H]2[C@@H]3[C@H](O)C[C@@H]4C[C@H](O)CC[C@]4(C)[C@H]3CC[C@]12C` [TCDCA], the “CMC […] Na+” value in data set [7] was 3.0* mM. In addition, the “LogPA- (1-octanol-water partition coefficient, ionized species)” value in data set [8] is on record as 0.9*. In addition, at bovine serum albumin, the “Albumin Binding” value is 70* %.
In the case of `C[C@H](CCC(=O)NCCS(=O)(=O)O)[C@H]1CC[C@H]2[C@@H]3[C@@H](O)C[C@@H]4C[C@H](O)CC[C@]4(C)[C@H]3CC[C@]12C` [TUDCA], in data set [7], the “CMC […] Na+” value is on record as 2.2* mM. In data set [8], the “LogPA- (1-octanol-water partition coefficient, ionized species)” value is on record as 1.1*. The “Albumin Binding” value on bovine serum albumin was 67* %.
`CC/C(=C(\c1ccccc1)c1ccc(OCCN(C)C)cc1)c1ccccc1` [Tamoxifen] had an EC50 at 4 h in “in vitro” (HepG2 cells) of 47 µM.
